Experimental data reported in paper PMC12785325, “Edible Yellow Mealworm-Derived Antidiabetic Peptides: Dual Modulation of α-Glucosidase and Dipeptidyl-Peptidase IV Inhibition Revealed by Integrated Proteomics, Bioassays, and Molecular Docking Analysis” (Foods, 2025).
Where a SMILES comes first, the peptide text is derived from it.

Experiments:
[1] = biological target: T1, DPP-IV (Homo sapiens, UniProt P27487); assay: DPP-IV inhibitor screening assay (commercial kit, Abcam); assay type: biochemical; settings: IC50 from DPP-IV inhibition rates, '-' = no IC50 given (only three peptides showed inhibitory effects against DPP-IV)
T1 construct: purchased Abcam (Cambridge, UK)
T1 sequence (P27487 whole entry): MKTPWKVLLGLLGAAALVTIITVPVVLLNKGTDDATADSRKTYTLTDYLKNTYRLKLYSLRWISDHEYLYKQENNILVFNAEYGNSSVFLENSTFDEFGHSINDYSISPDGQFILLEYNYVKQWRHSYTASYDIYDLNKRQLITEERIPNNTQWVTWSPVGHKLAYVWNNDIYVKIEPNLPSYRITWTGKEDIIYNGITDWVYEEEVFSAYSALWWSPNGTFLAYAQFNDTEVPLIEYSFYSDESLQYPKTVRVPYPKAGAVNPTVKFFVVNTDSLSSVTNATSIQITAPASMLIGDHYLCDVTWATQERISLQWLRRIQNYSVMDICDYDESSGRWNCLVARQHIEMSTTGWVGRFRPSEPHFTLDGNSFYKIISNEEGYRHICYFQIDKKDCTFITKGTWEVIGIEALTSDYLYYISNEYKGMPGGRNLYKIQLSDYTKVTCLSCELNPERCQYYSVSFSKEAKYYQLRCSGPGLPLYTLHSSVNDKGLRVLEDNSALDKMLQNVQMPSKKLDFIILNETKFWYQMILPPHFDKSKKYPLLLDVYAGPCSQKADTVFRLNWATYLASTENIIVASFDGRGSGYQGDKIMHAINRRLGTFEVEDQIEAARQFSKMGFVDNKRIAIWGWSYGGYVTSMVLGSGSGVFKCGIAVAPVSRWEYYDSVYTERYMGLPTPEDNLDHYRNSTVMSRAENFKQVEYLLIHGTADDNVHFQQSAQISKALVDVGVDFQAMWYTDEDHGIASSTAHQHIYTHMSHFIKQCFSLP
Procedure: Subsequently, the screening assay was conducted using a commercial kit (Abcam, Cambridge, UK) following the protocols provided by the manufacturer. The half-maximal inhibitory concentration (IC50) was determined through analysis of DPP-IV inhibition rates, applying the formula outlined in Equation (2):(2) DPP-IV inhibition rate (%) = [(ABlank − ASample)/ABlank] × 100 where A represents the absorbance value.

[2] = test system: HepG2 cells; assay: HepG2 cell viability (CCK-8); assay type: cell-based, human; settings: at certain concentrations within 100-400 μg/mL, 24 h, p < 0.05
Procedure: HepG2 human hepatocellular carcinoma cells utilized in this study were generously provided by Prof. Fuliang Hu from Zhejiang University’s College of Animal Science (China). Cellular maintenance involved cultivation in HyClone’s high-glucose DMEM medium supplemented with 10% heat-inactivated fetal bovine serum (Gibco, Waltham, MA, USA) and antibiotic agents (100 U/mL penicillin plus 100 μg/mL streptomycin). Cellular propagation was conducted under standard culture conditions (37 °C, 5% CO2 humidified atmosphere), following established protocols.
To validate whether the bioactive peptides exert toxic effects on cells, the impact of peptide concentrations on cell viability should also be assessed. […] After the treatment period, 10 μL of CCK-8 solution was added, and these 96-well plates were gently shaken and incubated again at 37 °C under 5% CO2 for another 1 h. In the end, the calculation methodology for evaluating the cell viability of bioactive peptides is described in Equation (2) in Section 2.6 to assess the effects of bioactive peptides on cell viability. All blank groups were established using DMEM high-glucose medium devoid of insulin.

SMILES | IC50 [1] [mM] | HepG2 cell viability versus blank group [2]
CC(C)C[C@H](NC(=O)[C@H](C)NC(=O)[C@H](CC(=O)O)NC(=O)[C@H](Cc1ccccc1)NC(=O)[C@@H]1CCCN1C(=O)[C@@H](N)CC(=O)O)C(=O)N1CCC[C@H]1C(=O)N[C@@H](CCCCN)C(=O)O [DK-8] (H-DPFDALPK-OH) |  | significantly higher than the blank group
CSCC[C@H](NC(=O)CN)C(=O)N[C@@H](CC(=O)O)C(=O)N[C@@H](Cc1ccccc1)C(=O)N[C@@H](CCC(N)=O)C(=O)N1CCC[C@H]1C(=O)N[C@@H](CCCNC(=N)N)C(=O)O [GR-7] (H-GMDFQPR-OH) |  | significantly higher than the blank group
CC(C)C[C@H](NC(=O)[C@@H](N)CO)C(=O)N[C@@H](Cc1ccccc1)C(=O)N[C@@H](CC(C)C)C(=O)N1CCC[C@H]1C(=O)N[C@@H](CCCCN)C(=O)O [SK-6] (H-SLFLPK-OH) | > 14.2 | significantly higher than the blank group

The next lines start with results.

IC50 [1] [mM] | SMILES | HepG2 cell viability versus blank group [2]
> 12.2 | NCCCC[C@H](NC(=O)[C@H](Cc1ccccc1)NC(=O)[C@@H]1CCCN1C(=O)[C@@H]1CCCN1C(=O)CNC(=O)[C@H](Cc1ccc(O)cc1)NC(=O)[C@@H](N)CC(=O)O)C(=O)O [DK-7] (H-DYGPPFK-OH) | 
> 10.2 | CC(C)C[C@H](NC(=O)[C@H](CC(=O)O)NC(=O)[C@H](Cc1ccccc1)NC(=O)[C@@H]1CCCN1C(=O)[C@H](CC(N)=O)NC(=O)[C@@H](N)Cc1ccccc1)C(=O)N[C@H](C(=O)N[C@@H](CCCCN)C(=O)O)[C@@H](C)O [FK-8] (H-FNPFDLTK-OH) | 
